The test deals with L1210 leukemia ip in BDF1 mice, survival T/C. As to the kind of experiment: NCI In Vivo Anticancer Drug Screen. Data for tumor model L1210 Leukemia (intraperitoneal) in B6D2F1 (BDF1) mice. Conditions: endpoint: mean survival time, higher = longer survival. Summed up: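 Antitumor effect is assessed in tumor-bearing animals. Survival in the compound arm is compared with a vehicle-dosed control arm and expressed as their quotient.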

The mark [1] stands for this setting: dose: 200.0 mg/kg/injection, schedule: Q01DX001 (ip), vehicle: saline.
Setting [2] is: dose: 400.0 mg/kg/injection, schedule: Q01DX001 (ip), vehicle: saline.
Setting [3] is: dose: 100.0 mg/kg/injection, schedule: Q01DX001 (ip), vehicle: Klucel (hydroxypropylcellulose) (HPC).
[4] abbreviates: dose: 100.0 mg/kg/injection, schedule: Q04DX003 (ip), vehicle: Klucel (hydroxypropylcellulose) (HPC).
The mark [5] stands for this setting: dose: 200.0 mg/kg/injection, schedule: Q01DX001 (ip), vehicle: Klucel (hydroxypropylcellulose) (HPC).
Where [6] appears, read: dose: 200.0 mg/kg/injection, schedule: Q04DX003 (ip), vehicle: Klucel (hydroxypropylcellulose) (HPC).
Where [7] appears, read: dose: 400.0 mg/kg/injection, schedule: Q01DX001 (ip), vehicle: Klucel (hydroxypropylcellulose) (HPC).
Setting [8] is: dose: 400.0 mg/kg/injection, schedule: Q04DX003 (ip), vehicle: Klucel (hydroxypropylcellulose) (HPC).
The mark [9] stands for this setting: dose: 100.0 mg/kg/injection, schedule: Q04DX003 (ip), vehicle: saline with Tween-80.
The mark [10] stands for this setting: dose: 200.0 mg/kg/injection, schedule: Q04DX003 (ip), vehicle: saline with Tween-80.
[11] abbreviates: dose: 400.0 mg/kg/injection, schedule: Q04DX003 (ip), vehicle: saline with Tween-80.
[12] abbreviates: dose: 50.0 mg/kg/injection, schedule: Q01DX009 (ip), vehicle: saline.
Where [13] appears, read: dose: 100.0 mg/kg/injection, schedule: Q01DX009 (ip), vehicle: saline.
[14] abbreviates: dose: 200.0 mg/kg/injection, schedule: Q01DX009 (ip), vehicle: saline.
Where [15] appears, read: dose: 200.0 mg/kg/injection, schedule: Q01DX009 (ip), vehicle: Klucel (hydroxypropylcellulose) (HPC).
The mark [16] stands for this setting: dose: 50.0 mg/kg/injection, schedule: Q01DX001 (ip), vehicle: carboxymethylcellulose (CMC).
Where [17] appears, read: dose: 100.0 mg/kg/injection, schedule: Q01DX001 (ip), vehicle: carboxymethylcellulose (CMC).
Where [18] appears, read: dose: 200.0 mg/kg/injection, schedule: Q01DX001 (ip), vehicle: carboxymethylcellulose (CMC).
The mark [19] stands for this setting: dose: 400.0 mg/kg/injection, schedule: Q01DX001 (ip), vehicle: carboxymethylcellulose (CMC).
The mark [20] stands for this setting: dose: 100.0 mg/kg/injection, schedule: Q01DX009 (ip), vehicle: other.
[21] abbreviates: dose: 400.0 mg/kg/injection, schedule: Q01DX009 (ip), vehicle: other.
The mark [22] stands for this setting: dose: 100.0 mg/kg/injection, schedule: Q01DX001 (ip), vehicle: saline with Tween-80.
Setting [23] is: dose: 200.0 mg/kg/injection, schedule: Q01DX001 (ip), vehicle: saline with Tween-80.
[24] abbreviates: dose: 400.0 mg/kg/injection, schedule: Q01DX001 (ip), vehicle: saline with Tween-80.
Setting [25] is: dose: 100.0 mg/kg/injection, schedule: Q04DX002 (ip), vehicle: saline with Tween-80.
The mark [26] stands for this setting: dose: 200.0 mg/kg/injection, schedule: Q04DX002 (ip), vehicle: saline with Tween-80.
The mark [27] stands for this setting: dose: 400.0 mg/kg/injection, schedule: Q04DX002 (ip), vehicle: saline with Tween-80.

Each structure is given as a SMILES string. Where “and” joins values, the source holds several entries; their conditions need not be identical. Identical values can stand only once. Toxic doses and inconclusive results are not listed.

In the case of `Cc1ccc(C)c(C(O)C(=O)O)c1` (stereo not drawn), the T/C runs as follows: (dose: 75.0 mg/kg/injection, schedule: Q01DX001 (ip), vehicle: acetone) 101 % of control; (dose: 150.0 mg/kg/injection, schedule: Q01DX001 (ip), vehicle: acetone) 98 % of control; (dose: 300.0 mg/kg/injection, schedule: Q01DX001 (ip), vehicle: acetone) 95 % of control.

As for `COc1cc(S(=O)(=O)F)ccc1NC(=O)/C=C/c1ccc([N+](=O)[O-])cc1`, the T/C is 103 % of control (dose: 100.0 mg/kg/injection, schedule: Q01DX001 (ip), vehicle: saline); 94 % of control under setting [1]; 100 % of control under setting [2].

As to `O=C1OCC2CC3c4ccccc4C12c1ccccc13` (stereo not drawn), the T/C reads like this: under setting [3], 100 % of control; under setting [4], 98 % of control; under setting [5], 92 % of control; under setting [6], 93 % of control; under setting [7], 105 % of control; under setting [8], 97 % of control.

For the compound `O=C(Nc1cccc2c1C(=O)c1cccc(Cl)c1C2=O)c1ccccc1`, the T/C by setting is: under setting [9], 87 % of control; under setting [10], 89 % of control; under setting [11], 86 % of control.

As to `COc1ccc(/C=C/C(=O)c2cc(C(=O)O)c(OC)cc2OC)cc1OC`, the T/C (dose: 12.5 mg/kg/injection, schedule: Q01DX009 (ip), vehicle: saline with Tween-80) is 111 % of control; the T/C (dose: 25.0 mg/kg/injection, schedule: Q01DX009 (ip), vehicle: saline with Tween-80) was 93 % of control; the T/C (dose: 50.0 mg/kg/injection, schedule: Q01DX009 (ip), vehicle: saline with Tween-80) is 98 % of control; the T/C (dose: 100.0 mg/kg/injection, schedule: Q01DX009 (ip), vehicle: saline with Tween-80) is 98 % of control; the T/C (dose: 200.0 mg/kg/injection, schedule: Q01DX009 (ip), vehicle: saline with Tween-80) was 95 % of control.

Turning to `CC(C)N(C(=O)Nc1cc([N+](=O)[O-])ccc1F)c1ccccc1`, the T/C under setting [4] is 96 % of control, the T/C under setting [6] was 100 % of control and the T/C under setting [8] is 96 % of control.

As for `Clc1ccc(/C(=N\OC(c2ccccc2)c2ccccc2)c2ccccc2)cc1`, the T/C is, setting by setting: under setting [1], 86 % of control; under setting [2], 87 % of control.

As to `CN1CCC(CC(=O)O)CC1`, the T/C by setting is: under setting [12], 92 % of control; under setting [13], 92 % of control; under setting [14], 111 % of control.

On to `Cc1ccc([N+](=O)[O-])cc1NC(=O)Nc1onc(C)c1C`, for which the T/C is, setting by setting: (dose: 50.0 mg/kg/injection, schedule: Q01DX009 (ip), vehicle: Klucel (hydroxypropylcellulose) (HPC)) 90 % of control; under setting [15], 87 % of control.

With `O=[N+]([O-])c1ccc(S(=O)(=O)C2CCCCC2Cl)c([N+](=O)[O-])c1` (stereo not drawn), the T/C is 95 % of control under setting [16], 111 % of control under setting [17], 106 % of control under setting [18] and 101 % of control under setting [19].

With `CSc1ccc(NC(=O)Nc2ccccc2C(F)(F)F)cc1`, the T/C under setting [20] was 96 % of control; the T/C (dose: 200.0 mg/kg/injection, schedule: Q01DX009 (ip), vehicle: other) was 96 % of control; the T/C under setting [21] was 95 % of control.

Take `C=C(C(=O)c1ccccc1)C(NC(C)(C)C)c1ccccc1` (stereo not drawn): the T/C is 95 % of control (dose: 5.0 mg/kg/injection, schedule: Q01DX001 (ip), vehicle: saline); 98 % of control (dose: 10.0 mg/kg/injection, schedule: Q01DX001 (ip), vehicle: saline); 95 % of control (dose: 20.0 mg/kg/injection, schedule: Q01DX001 (ip), vehicle: saline).

Regarding `C=CCC(CCCCCCCCCCC)C(=O)O` (stereo not drawn), the T/C runs as follows: under setting [22], 111 % of control; under setting [23], 97 % of control; under setting [24], 90 % of control.

With `CC(C)C(C)/C=C\C(C)C1CCC2C3=CCC4CC(=O)CCC4(C)C3CCC21C` (stereo not drawn), the T/C runs as follows: (dose: 50.0 mg/kg/injection, schedule: Q01DX001 (ip), vehicle: Klucel (hydroxypropylcellulose) (HPC)) 88 % of control; under setting [3], 93 % of control; under setting [5], 88 % of control; under setting [7], 97 % of control.

Consider `NNC(=O)c1ccc(-c2ccc[nH]2)[nH]1`, for which the T/C reads like this: (dose: 75.0 mg/kg/injection, schedule: Q01DX001 (ip), vehicle: saline) 108 % of control; (dose: 150.0 mg/kg/injection, schedule: Q01DX001 (ip), vehicle: saline) 92 % of control.

Regarding `NC(=O)C1=CN(Cc2ccccc2)C=CC1`, the T/C under setting [9] was 100 % of control, the T/C under setting [10] was 106 % of control and the T/C under setting [11] is 94 % of control.

For `Nn1c(=S)[nH]n2cnnc12`, the T/C under setting [17] is 98 % of control, the T/C under setting [18] is 106 % of control and the T/C under setting [19] is 95 % of control.

For `CN(C)/N=C\c1cccc2ccccc12`, the T/C was 96 % of control under setting [25], 92 % of control under setting [26] and 92 % of control under setting [27].

In the case of `COc1ccc(NC(=O)Oc2ccc(F)cc2)c(OC)c1`, the T/C is, setting by setting: (dose: 100.0 mg/kg/injection, schedule: Q01DX009 (ip), vehicle: Klucel (hydroxypropylcellulose) (HPC)) 89 % of control; under setting [15], 101 % of control; (dose: 400.0 mg/kg/injection, schedule: Q01DX009 (ip), vehicle: Klucel (hydroxypropylcellulose) (HPC)) 94 % of control.

Regarding `CCOC(=O)C(C)C1(c2ccccc2)OC(=O)c2ccccc21` (stereo not drawn), the T/C runs as follows: under setting [25], 108 % of control; under setting [26], 112 % of control; under setting [27], 97 % of control.

As for `O=C1C2C3CCC(O3)C2C(=O)N1CSc1nc2ccccc2s1` (stereo not drawn), the T/C reads like this: under setting [22], 96 % of control; under setting [23], 90 % of control; under setting [24], 95 % of control.

With `Cc1cc(Cl)ccc1NC(=O)Nc1ccc(Cl)c(Cl)c1`, the T/C under setting [4] is 88 % of control; the T/C under setting [6] is 90 % of control; the T/C under setting [8] was 98 % of control and 88 % of control.

With `CCC(=O)C(CC(C)[N+](C)(C)C)(c1ccccc1)c1ccccc1` (stereo not drawn), under setting [17], the T/C was 92 % of control.

On to `Nc1nc(SCc2ccccc2)c2ncn(C3OC(CO)CC3O)c2n1` (stereo not drawn), for which the T/C by setting is: (dose: 25.0 mg/kg/injection, schedule: Q01DX009 (ip), vehicle: other) 113 % of control; under setting [16], 110 % of control; (dose: 50.0 mg/kg/injection, schedule: Q01DX009 (ip), vehicle: other) 158 % of control; under setting [17], 116 % of control; under setting [20], 158 % of control; under setting [19], 150 % of control. The T/C by setting is: under setting [21], 95 % of control; (dose: 600.0 mg/kg/injection, schedule: Q01DX001 (ip), vehicle: carboxymethylcellulose (CMC)) 155 % of control.

Take `COc1ccc(/C(C)=N\OC(=O)N(C)C)c(OC)c1`: the T/C under setting [17] is 100 % of control, the T/C under setting [18] is 100 % of control and the T/C under setting [19] is 103 % of control.

With `CCCC(O)S(=O)(=O)O` (stereo not drawn), the T/C is 103 % of control under setting [12]; 94 % of control under setting [13]; 102 % of control (dose: 100.0 mg/kg/injection, schedule: Q04DX003 (ip), vehicle: acetone); 97 % of control under setting [14]; 99 % of control (dose: 200.0 mg/kg/injection, schedule: Q04DX003 (ip), vehicle: acetone); 93 % of control (dose: 400.0 mg/kg/injection, schedule: Q04DX003 (ip), vehicle: acetone).

Source of the values: PubChem BioAssay AID248 (DTP/NCI, 2004).
